{
  "source": "ChEMBL document CHEMBL5705888",
  "about": "“Substrate specificity and inhibitors of LRRK2, a protein kinase mutated in Parkinson's disease” (Biochem J, 2009)",
  "key": {"[1]": {"target": "T1, Serine/threonine-protein kinase Nek2 (Homo sapiens) (UniProt P51955)", "T1 sequence (whole entry)": "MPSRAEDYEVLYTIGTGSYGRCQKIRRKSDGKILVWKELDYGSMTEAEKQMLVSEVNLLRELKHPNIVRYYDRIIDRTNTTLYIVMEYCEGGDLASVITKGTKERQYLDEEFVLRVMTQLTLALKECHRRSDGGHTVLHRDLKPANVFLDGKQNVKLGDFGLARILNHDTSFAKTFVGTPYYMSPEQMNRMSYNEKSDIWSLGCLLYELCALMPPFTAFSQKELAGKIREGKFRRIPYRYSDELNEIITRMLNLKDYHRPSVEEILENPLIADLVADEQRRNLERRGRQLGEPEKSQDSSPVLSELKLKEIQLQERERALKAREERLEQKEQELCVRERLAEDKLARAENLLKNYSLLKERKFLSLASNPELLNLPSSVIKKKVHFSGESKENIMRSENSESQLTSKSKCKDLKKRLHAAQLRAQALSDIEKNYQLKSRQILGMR", "assay": "Inhibition of NEK2a (unknown origin) at 10 uM incubated for 30 mins in presence of [gamma-33P]ATP by multidrop micro reagent based assay relative to control; values are per cent of control"}, "[2]": {"target": "T2, Mitogen-activated protein kinase 15 (Homo sapiens) (UniProt Q8TD08)", "T2 sequence (whole entry)": "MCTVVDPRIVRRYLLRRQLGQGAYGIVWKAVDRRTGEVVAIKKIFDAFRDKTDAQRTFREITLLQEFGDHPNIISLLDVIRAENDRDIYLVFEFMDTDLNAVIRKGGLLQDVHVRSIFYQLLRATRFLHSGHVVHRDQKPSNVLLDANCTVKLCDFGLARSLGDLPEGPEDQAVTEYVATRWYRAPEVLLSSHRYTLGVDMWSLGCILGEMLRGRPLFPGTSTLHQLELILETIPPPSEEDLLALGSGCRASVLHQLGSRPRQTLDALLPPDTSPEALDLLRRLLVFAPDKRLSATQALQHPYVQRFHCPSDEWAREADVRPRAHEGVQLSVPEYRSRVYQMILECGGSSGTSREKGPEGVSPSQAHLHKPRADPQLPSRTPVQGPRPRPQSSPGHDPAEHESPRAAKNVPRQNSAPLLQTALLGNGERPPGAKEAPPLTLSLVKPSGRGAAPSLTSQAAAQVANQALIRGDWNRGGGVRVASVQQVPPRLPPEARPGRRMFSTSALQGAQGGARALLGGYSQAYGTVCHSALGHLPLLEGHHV", "assay": "Inhibition of ERK8 (unknown origin) at 10 uM incubated for 30 mins in presence of [gamma-33P]ATP by multidrop micro reagent based assay relative to control"}, "[3]": {"target": "Misshapen-like kinase 1 (Homo sapiens) (UniProt Q8N4C8)", "sequence (Q8N4C8 whole entry, looked up)": "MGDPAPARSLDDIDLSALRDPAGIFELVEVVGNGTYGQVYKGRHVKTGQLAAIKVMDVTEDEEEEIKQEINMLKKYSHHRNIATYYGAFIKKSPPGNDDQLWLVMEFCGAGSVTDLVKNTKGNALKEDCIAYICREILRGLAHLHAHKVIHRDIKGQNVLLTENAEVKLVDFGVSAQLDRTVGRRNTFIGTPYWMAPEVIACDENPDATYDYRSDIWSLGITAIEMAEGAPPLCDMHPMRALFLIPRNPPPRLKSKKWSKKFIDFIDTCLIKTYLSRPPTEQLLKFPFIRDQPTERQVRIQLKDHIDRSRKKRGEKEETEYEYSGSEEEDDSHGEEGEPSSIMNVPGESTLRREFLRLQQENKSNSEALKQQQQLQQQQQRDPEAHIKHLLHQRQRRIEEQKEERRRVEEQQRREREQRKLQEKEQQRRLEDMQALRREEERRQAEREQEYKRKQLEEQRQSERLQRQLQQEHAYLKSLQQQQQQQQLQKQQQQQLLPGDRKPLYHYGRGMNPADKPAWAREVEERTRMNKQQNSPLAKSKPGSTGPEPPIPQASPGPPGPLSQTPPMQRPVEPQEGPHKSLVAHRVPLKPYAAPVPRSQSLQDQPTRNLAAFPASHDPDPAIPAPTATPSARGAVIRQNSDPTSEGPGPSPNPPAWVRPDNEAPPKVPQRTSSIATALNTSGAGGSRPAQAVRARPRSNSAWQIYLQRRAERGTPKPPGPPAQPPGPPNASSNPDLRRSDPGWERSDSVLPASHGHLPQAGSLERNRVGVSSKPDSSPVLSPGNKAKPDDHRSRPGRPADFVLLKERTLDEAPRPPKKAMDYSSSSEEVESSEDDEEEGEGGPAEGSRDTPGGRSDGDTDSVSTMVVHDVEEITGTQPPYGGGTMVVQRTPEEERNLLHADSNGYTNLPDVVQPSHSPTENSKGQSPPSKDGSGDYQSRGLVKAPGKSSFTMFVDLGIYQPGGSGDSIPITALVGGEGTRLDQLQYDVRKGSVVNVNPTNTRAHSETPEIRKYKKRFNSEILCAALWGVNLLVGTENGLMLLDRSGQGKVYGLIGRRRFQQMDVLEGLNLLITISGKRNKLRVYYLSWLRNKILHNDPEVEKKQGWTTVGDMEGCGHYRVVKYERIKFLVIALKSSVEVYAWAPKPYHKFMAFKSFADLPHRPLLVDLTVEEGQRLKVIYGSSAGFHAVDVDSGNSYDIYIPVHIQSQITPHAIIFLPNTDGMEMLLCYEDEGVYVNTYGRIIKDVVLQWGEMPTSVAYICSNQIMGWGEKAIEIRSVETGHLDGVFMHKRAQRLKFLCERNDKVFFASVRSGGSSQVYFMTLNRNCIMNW", "assay": "Inhibition of MINK1 (unknown origin) at 10 uM incubated for 30 mins in presence of [gamma-33P]ATP by multidrop micro reagent based assay relative to control; values are per cent of control"}, "[4]": {"target": "3-phosphoinositide-dependent protein kinase 1 (Homo sapiens) (UniProt O15530)", "sequence (O15530 whole entry, looked up)": "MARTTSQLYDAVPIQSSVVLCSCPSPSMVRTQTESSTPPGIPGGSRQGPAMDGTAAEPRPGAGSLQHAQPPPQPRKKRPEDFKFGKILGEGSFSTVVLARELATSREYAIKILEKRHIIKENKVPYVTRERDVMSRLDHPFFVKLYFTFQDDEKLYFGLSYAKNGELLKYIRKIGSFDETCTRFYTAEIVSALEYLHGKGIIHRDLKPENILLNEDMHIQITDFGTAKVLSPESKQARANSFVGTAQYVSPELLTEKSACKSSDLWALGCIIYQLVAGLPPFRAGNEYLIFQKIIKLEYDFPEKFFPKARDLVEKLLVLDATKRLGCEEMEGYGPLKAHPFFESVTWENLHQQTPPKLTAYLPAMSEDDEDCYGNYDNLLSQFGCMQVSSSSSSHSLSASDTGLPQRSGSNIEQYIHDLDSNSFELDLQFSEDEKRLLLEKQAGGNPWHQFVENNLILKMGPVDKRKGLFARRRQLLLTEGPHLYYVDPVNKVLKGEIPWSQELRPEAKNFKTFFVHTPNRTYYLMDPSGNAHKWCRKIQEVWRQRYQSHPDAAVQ", "assay": "Inhibition of PDK1 (unknown origin) at 1 uM incubated for 30 mins in presence of [gamma-33P]ATP by multidrop micro reagent based assay relative to control; values are per cent of control"}, "[5]": {"target": "MAP kinase-activated protein kinase 2 (Homo sapiens) (UniProt P49137)", "sequence (P49137 whole entry, looked up)": "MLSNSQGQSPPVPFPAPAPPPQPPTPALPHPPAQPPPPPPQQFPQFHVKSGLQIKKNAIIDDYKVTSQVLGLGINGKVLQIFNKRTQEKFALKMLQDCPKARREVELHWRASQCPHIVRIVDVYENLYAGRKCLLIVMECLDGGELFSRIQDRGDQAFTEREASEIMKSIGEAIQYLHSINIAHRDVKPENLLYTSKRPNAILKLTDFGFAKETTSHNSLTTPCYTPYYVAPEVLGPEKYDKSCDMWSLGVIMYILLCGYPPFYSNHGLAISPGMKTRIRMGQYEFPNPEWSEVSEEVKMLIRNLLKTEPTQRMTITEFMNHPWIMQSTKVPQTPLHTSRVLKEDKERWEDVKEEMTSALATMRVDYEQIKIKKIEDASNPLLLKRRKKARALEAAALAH", "assay": "Inhibition of MAPKAPK2 (unknown origin) at 1 uM incubated for 30 mins in presence of [gamma-33P]ATP by multidrop micro reagent based assay relative to control; values are per cent of control"}},
  "data": [
    {"smiles": "C[C@@H](N)[C@H]1CC[C@H](C(=O)Nc2ccncc2)CC1", "values": [
      {"measurement": "residual activity", "setting": "[1]", "value": 104, "unit": "%"}
    ]},
    {"smiles": "O=S(=O)(c1cccc2cnccc12)N1CCCNCC1", "note": "[FASUDIL]", "values": [
      {"measurement": "inhibition", "setting": "[2]", "value": 68, "unit": "%"},
      {"measurement": "residual activity", "setting": "[3]", "value": 54, "unit": "%"}
    ]},
    {"smiles": "CC1=C(C(=O)Nc2cc3cn[nH]c3cc2F)C(c2ccc(C(F)(F)F)cc2)CC(=O)N1", "note": "(stereo not given)", "values": [
      {"measurement": "residual activity", "setting": "[4]", "value": 120, "unit": "%"},
      {"measurement": "residual activity", "setting": "[5]", "value": 91, "unit": "%"}
    ]}
  ]
}
